The values below are quoted from earlier work in paper PMC12648288, “Drastic Impact of Donor Substituents on Xanthenes in the PDT of Glioblastoma” (JACS Au, 2025).

For data set [1] the following is noted: in MeOH, as fraction; cited from earlier work.
For data set [2] the following is noted: cited from earlier work.
Data set [3] has as its system DBTRG-05. Details: method as in ref 29 (SI list). The conditions noted are these: ref 29 (SI list); cited from earlier work.
In data set [4] the test system is A172. More on the design: method as in ref 29 (SI list). The note with it: ref 29 (SI list); cited from earlier work.
Data set [5] concerns U87MG. The note with it: cited from earlier work; for pIC50: 32 (SI list).
In data set [6] the test system is HUVEC. Details: method as in ref 16 (SI list). The conditions noted are these: ref 16 (SI list); cited from earlier work.
In data set [7] the test system is F98. The conditions noted are these: 31 (SI list); cited from earlier work.
For data set [8], the system named is SNB-19. Details: method as in ref 11 (SI list). The note with it: ref 11 (SI list); cited from earlier work.
Data set [9] concerns T98G. The conditions noted are these: ref 28 (SI list); cited from earlier work.
[10] abbreviates: measured in PBS (pH 7.4), 22-32 (SI list).

pIC50: −log10 of the molar value. Read-outs that look alike come from different tables or passages of the source. No end group written: not given here. TPC = chlorin-type photosensitizer; Ahx = NCCCCCC(=O)O

Consider `CN(C)c1ccc2nc3ccc(=[N+](C)C)cc-3sc2c1` [methylene blue], for which the “ΦF of reference standard” value in data set [1] is 0.23.

Take `CN(C)c1ccc2cc3ccc(N(C)C)cc3nc2c1` [Acridine Orange]: the “Abs (nm)” value in [2] (setting [10]) is listed as 487 nm.

As for “Tetrahydroporphyrin-Tetratosylat [THPTS]”, in [2] (setting [10]), the “Abs (nm)” value is recorded as 760 nm. The IC30 is 4 µM in data set [3], 10 µM in data set [4] and 2 µM in data set [5] (ref 29 (SI list)).

In the case of `[Zn+2].c1ccc2c(c1)-c1nc-2nc2[n-]c(nc3nc([n-]c4nc(n1)-c1ccccc1-4)-c1ccccc1-3)c1ccccc21` [ZnPc], the “Abs (nm)” value in data set [2] (setting [10]) was 645 nm.

With “TPC–Ahx–ATWLPPR: chlorin-type photosensitizer conjugated to neuropilin-1 targeting peptide (SI ref 16) ({TPC-Ahx}-ATWLPPR)”, the “Abs (nm)” value in data set [2] (EtOH, 16 (SI list)) is 420 nm. Moreover, the pIC50 in data set [6] is 3.77.

In the case of [(Ph2phen)2Os(dpp)]2+, the “Abs (nm)” value in [2] (setting [10]) is listed as 650 nm. Moreover, the pIC50 in data set [7] was 4.07.

As for `C=Cc1c(C)c2cc3nc(cc4nc(cc5[nH]c(cc1[nH]2)c(C)c5C(C)OC(C)c1c(C)c2cc5[nH]c(cc6nc(cc7nc(cc1[nH]2)C(C)=C7CCC(=O)[O-])C(CCC(=O)[O-])=C6C)c(C)c5C=C)C(C)=C4CCC(=O)[O-])C(CCC(=O)[O-])=C3C.[Na+].[Na+].[Na+].[Na+]` (centres unmarked) [Sinoporphyrin sodium (DVDMS), Sinoporphyrin sodium], the “Abs (nm)” value in data set [2] (setting [10]) is recorded as 631 nm.

On to “Benzoporphyrin derivative [Benzoporphyrin derivative (BPD)]”, for which the “Abs (nm)” value in data set [2] (setting [10]) is 692 nm. Further, the pIC50 in data set [5] is 4.88.

`COc1cc(/C=C/C(=O)CC(=O)/C=C/c2ccc(O)c(OC)c2)ccc1O` [Curcumin (CUR), Curcumin]: in data set [8], the pIC50 was 5.24.

Take `CCCCCCOC(C)c1c(C)c2cc3nc(c4c5[nH]c(cc6nc(cc1[nH]2)C(C)=C6CC)c(C)c5C(=O)C4)C(CCC(=O)Nc1ccc(SC2=C(C=CC4=[N+](CCCCS(=O)(=O)[O-])c5ccc6ccccc6c5C4(C)C)CCCC2=CC=C2N(CCCCS(=O)(=O)[O-])c4ccc5ccccc5c4C2(C)C)cc1)C3C.[Na+]` (centres unmarked) [HPPH-CD]: in data set [2] (setting [10]), the “Abs (nm)” value is given as 848 nm. The pIC50 in data set [5] was 5.79.

Consider `COc1c(CC(C)O)c2c3c(CC(C)O)c(OC)c(=O)c4c(O)cc5c(c6c(cc(O)c(c1=O)c62)OCO5)c43` (centres unmarked) [Cercosporin], for which the “Abs (nm)” value in [2] (setting [10]) was 473 nm. Moreover, the LD50 in data set [5] (ref 28 (SI list)) and in [9] was 4 µM each time.

As for `Cc1ccnc(-c2cc(C)ccn2)c1.Cc1ccnc(-c2cc(C)ccn2)c1.[Cl-].[Cl-].[Ru+2].c1csc(-c2ccc(-c3ccc(-c4nc5c6cccnc6c6ncccc6c5[nH]4)s3)s2)c1` [TLD1433], the “Abs (nm)” value in data set [2] (setting [10]) was 416 nm. For the same compound, the pIC50 in data set [5] is 7.29; in data set [7], 5.55.
